From ChEMBL document CHEMBL1201862, “PubChem BioAssay data set” (2004)
Activity calls are given as the source filed them.

Assays:
[1] = biological target: Eukaryotic translation initiation factor 4E (Mus musculus, UniProt P63073); experiment: eIF4E–eIF4G protein interaction inhibitors, dose response, biochemical, TR-FRET (AID 855); assay type: functional;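 note: potency for disrupting eIF4E binding to eIF4GI seen as loss of FRET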
[2] = cells
[3] = HEp-2 cell cytotoxicity, dose response, cytotoxicity control for RSV inhibitor project, HTS (AID 2410); assay type: functional; details: human respiratory syncytial virus
[4] = biological target: T1, Aminopeptidase N (Plasmodium falciparum FcB1/Columbia, UniProt O96935); experiment: P. falciparum M1AAP inhibitors, biochemical, fluorogenic H-Leu-NHMec substrate, 1536-well (AID 1445); set-up: species or system Plasmodium falciparum 3D7, 3D7
T1 sequence (O96935 whole entry): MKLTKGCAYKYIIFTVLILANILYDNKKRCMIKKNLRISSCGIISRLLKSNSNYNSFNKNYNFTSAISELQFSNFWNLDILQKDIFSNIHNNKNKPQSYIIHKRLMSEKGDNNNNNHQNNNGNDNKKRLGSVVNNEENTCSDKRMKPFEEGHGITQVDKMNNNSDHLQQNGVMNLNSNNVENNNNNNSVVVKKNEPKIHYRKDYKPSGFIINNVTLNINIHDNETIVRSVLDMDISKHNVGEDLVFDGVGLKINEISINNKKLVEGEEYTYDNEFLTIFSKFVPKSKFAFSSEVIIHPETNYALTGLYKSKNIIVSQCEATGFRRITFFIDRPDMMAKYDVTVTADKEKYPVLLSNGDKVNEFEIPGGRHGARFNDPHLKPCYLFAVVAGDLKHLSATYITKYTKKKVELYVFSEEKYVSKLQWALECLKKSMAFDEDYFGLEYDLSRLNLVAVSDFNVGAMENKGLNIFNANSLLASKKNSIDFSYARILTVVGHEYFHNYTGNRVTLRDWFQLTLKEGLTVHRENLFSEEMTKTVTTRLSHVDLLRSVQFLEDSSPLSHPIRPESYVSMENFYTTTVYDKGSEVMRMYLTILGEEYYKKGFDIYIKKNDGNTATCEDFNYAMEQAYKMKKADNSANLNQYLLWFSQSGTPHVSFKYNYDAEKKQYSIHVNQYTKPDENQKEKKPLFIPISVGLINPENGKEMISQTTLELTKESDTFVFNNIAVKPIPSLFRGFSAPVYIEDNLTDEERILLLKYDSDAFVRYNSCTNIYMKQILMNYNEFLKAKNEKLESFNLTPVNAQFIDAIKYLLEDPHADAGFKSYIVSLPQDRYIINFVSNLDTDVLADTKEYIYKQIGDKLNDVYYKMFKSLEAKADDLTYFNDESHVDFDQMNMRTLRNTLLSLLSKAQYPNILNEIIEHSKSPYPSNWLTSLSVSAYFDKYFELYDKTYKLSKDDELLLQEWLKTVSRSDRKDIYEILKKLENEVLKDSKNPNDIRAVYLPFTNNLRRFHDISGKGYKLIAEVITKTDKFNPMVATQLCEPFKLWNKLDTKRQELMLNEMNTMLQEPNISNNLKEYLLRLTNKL

[5] = biological target: Nonstructural protein 1 (Influenza A virus, UniProt Q194T2); assay type: functional, Influenza A virus (A/California/07/2009(H1N1))
[6] = microbe, parasite or virus in culture; assay type: functional; details: Mycobacterium tuberculosis
[7] = tested on: Streptococcus sp. 'group A'; experiment: growth inhibition of control SK(-) GAS strain, dose response, counter-screen for streptokinase expression inhibitor project, luminescence, kanamycin, BacTiterGlo, confirmation (AID 1900); assay type: functional, organism-based
[8] = biological target: T2, Streptokinase A (Streptococcus pyogenes serotype M1, UniProt P10520); experiment: S. pyogenes streptokinase expression inhibitors, potency, dose response, plasminogen activation absorbance, OD405 (AID 1914); assay type: functional, Streptococcus pyogenes M1 GAS;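 note: secreted streptokinase activity via plasminogen activation per viability signal from cell pellet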
T2 sequence (P10520 whole entry): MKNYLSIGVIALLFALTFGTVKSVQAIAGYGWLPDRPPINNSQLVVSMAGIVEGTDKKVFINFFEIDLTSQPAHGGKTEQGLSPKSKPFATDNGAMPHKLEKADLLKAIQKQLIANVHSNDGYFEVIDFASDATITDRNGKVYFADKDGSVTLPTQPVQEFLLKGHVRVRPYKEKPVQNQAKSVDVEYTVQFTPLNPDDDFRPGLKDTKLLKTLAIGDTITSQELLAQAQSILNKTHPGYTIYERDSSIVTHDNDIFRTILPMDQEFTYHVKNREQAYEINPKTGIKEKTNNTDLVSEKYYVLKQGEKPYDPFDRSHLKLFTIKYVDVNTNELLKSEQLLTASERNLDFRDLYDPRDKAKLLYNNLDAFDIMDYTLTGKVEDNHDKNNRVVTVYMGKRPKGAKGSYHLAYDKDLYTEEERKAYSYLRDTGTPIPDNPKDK

[9] = tested on: Streptococcus; experiment: Group A Streptococcus viability loss, dose response, counter-screen for streptokinase expression inhibitor project, luminescence, BacTiterGlo (AID 1915); assay type: functional, organism-based;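 note: potency for reduction of bacterial viability or growth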
[10] = biological target: T3, Fatty acid synthase (Homo sapiens, UniProt P49327); experiment: FAS thioesterase domain inhibitors, dose response, biochemical, kinetic fluorescence intensity (AID 624326); assay type: functional;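 note: rate of fluorescence rise from hydrolysis of a fluorogenic O-methyl fluorescein ester substrate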
[11] = biological target: Induced myeloid leukemia cell differentiation protein Mcl-1 (Homo sapiens, UniProt Q07820); assay type: functional
[12] = biological target: T3, Fatty acid synthase; experiment: FAS thioesterase domain inhibitors, dose response, biochemical, endpoint fluorescence intensity, uHTS hits (AID 624327); assay type: functional;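 note: fluorescence from hydrolysis of an O-methyl fluorescein acyl ester substrate by the enzyme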
[13] = biological target: T4, Replicative DNA helicase DnaB (Mycobacterium tuberculosis, UniProt P9WMR3); experiment: DnaB intein splicing inhibitors, dose response, biochemical, cell-free fluorescence (AID 449749); assay type: functional
T4 sequence (P9WMR3 whole entry): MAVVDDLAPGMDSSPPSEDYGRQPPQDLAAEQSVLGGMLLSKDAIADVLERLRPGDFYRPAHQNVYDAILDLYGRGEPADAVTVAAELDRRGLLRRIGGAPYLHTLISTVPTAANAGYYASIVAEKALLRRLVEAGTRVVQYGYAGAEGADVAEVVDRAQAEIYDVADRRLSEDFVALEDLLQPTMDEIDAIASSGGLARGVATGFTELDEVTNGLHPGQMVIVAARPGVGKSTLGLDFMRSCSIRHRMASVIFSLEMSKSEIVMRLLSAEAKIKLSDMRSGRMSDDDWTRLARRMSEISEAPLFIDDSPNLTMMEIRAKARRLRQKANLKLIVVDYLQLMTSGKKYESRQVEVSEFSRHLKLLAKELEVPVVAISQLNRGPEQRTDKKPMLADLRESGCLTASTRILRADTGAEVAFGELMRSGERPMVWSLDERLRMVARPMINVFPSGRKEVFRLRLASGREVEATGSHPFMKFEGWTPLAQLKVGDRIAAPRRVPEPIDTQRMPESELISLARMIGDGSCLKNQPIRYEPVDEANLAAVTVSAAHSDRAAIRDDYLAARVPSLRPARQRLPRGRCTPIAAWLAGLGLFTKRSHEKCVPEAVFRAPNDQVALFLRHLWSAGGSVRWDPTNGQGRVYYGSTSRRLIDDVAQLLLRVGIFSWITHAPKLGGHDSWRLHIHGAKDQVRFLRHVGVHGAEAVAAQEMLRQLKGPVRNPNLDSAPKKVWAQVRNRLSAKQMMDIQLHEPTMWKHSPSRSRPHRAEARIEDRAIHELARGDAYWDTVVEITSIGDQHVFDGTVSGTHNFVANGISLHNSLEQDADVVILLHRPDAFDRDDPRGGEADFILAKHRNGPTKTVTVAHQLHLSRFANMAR

[14] = biological target: T5, Leucine aminopeptidase (Plasmodium falciparum 3D7, UniProt Q8IL11); experiment: P. falciparum M17LAP inhibitors, primary screen, biochemical, fluorogenic H-Leu-NHMec substrate, 1536-well (AID 1619); assay type: functional
T5 sequence (Q8IL11 whole entry): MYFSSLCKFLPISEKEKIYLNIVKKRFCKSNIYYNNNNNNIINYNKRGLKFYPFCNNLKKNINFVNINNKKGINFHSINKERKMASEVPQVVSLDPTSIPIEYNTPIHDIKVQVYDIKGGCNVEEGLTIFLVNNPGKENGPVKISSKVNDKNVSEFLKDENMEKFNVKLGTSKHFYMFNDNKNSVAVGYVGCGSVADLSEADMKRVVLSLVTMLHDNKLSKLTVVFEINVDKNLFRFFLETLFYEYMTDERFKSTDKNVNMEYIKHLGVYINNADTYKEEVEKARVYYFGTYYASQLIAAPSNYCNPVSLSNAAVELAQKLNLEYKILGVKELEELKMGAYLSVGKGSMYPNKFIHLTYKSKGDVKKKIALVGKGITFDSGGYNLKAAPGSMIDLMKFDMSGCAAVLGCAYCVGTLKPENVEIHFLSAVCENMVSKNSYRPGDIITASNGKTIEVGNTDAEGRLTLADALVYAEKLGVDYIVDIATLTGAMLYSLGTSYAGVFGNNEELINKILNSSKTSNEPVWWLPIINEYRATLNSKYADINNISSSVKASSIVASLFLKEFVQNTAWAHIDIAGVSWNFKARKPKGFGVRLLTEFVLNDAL

[15] = biological target: T6, Protein RecA (Mycobacterium tuberculosis, UniProt P9WHJ3); experiment: Fluorescence Cell-Free Homogeneous Dose Retest to Identify Inhibitors of RecA-Intein Splicing Activity. [Related pubchem assays (depositor defined):AID2097, AID2223, AID489010, AID492950]; assay type: functional
T6 sequence (P9WHJ3 whole entry): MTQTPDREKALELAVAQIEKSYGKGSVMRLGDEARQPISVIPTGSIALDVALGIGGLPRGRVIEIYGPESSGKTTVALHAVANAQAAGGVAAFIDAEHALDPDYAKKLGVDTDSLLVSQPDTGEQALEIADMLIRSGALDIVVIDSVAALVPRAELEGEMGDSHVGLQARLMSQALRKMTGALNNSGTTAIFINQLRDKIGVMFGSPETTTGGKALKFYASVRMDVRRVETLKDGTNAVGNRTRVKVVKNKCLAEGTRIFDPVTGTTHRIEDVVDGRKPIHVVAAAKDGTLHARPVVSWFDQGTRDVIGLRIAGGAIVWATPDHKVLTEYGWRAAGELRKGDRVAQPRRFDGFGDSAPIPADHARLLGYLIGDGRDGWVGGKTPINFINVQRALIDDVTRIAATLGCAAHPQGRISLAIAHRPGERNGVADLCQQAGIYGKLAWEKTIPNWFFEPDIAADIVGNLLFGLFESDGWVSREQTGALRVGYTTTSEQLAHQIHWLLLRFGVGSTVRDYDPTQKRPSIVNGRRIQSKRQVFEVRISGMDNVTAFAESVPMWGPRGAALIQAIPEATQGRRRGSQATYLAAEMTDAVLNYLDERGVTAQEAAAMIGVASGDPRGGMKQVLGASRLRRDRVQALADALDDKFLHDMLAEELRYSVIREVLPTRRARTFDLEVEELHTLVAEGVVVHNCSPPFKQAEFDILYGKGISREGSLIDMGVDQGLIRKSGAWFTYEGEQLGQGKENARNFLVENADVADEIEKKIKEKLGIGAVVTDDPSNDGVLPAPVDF

[16] = biological target: Genome polyprotein (dengue virus type 2, UniProt P29990); experiment: Dengue-2 NS5 methyltransferase inhibitors, primary screen, biochemical, confirmation dose response (AID 588689); assay type: functional
Sequence of Genome polyprotein (P29990 2492-3391 limits assumed): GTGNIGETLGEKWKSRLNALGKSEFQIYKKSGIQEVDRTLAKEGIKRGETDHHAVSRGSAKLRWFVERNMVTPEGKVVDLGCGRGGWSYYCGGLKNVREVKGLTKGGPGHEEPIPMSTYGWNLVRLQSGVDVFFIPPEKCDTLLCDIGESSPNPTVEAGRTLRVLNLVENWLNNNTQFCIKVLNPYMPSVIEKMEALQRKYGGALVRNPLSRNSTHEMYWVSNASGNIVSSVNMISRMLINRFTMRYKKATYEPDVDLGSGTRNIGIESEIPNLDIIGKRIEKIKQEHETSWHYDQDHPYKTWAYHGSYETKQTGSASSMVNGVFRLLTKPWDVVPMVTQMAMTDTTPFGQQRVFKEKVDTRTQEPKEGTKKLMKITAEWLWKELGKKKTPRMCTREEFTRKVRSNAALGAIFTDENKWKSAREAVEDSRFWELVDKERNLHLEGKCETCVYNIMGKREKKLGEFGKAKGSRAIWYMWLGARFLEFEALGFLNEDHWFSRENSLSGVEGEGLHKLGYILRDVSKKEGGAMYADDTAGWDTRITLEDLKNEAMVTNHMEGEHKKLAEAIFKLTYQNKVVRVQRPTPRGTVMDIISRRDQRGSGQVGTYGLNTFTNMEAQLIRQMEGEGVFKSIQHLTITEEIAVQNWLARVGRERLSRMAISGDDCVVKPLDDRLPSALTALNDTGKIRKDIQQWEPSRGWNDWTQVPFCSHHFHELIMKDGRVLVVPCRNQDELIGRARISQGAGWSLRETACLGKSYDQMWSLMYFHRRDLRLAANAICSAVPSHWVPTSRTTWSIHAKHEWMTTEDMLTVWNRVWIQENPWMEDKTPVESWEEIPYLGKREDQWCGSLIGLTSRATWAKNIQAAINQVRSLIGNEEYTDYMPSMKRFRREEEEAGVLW

Sequence of Eukaryotic translation initiation factor 4E (P63073 whole entry): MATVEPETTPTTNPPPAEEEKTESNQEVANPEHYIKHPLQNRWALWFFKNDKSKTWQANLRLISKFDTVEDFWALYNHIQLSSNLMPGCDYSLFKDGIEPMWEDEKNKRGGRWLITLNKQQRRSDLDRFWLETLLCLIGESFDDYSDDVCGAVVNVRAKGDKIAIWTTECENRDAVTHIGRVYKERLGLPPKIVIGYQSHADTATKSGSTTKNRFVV
T3 sequence (P49327 whole entry, the tested form may be a part): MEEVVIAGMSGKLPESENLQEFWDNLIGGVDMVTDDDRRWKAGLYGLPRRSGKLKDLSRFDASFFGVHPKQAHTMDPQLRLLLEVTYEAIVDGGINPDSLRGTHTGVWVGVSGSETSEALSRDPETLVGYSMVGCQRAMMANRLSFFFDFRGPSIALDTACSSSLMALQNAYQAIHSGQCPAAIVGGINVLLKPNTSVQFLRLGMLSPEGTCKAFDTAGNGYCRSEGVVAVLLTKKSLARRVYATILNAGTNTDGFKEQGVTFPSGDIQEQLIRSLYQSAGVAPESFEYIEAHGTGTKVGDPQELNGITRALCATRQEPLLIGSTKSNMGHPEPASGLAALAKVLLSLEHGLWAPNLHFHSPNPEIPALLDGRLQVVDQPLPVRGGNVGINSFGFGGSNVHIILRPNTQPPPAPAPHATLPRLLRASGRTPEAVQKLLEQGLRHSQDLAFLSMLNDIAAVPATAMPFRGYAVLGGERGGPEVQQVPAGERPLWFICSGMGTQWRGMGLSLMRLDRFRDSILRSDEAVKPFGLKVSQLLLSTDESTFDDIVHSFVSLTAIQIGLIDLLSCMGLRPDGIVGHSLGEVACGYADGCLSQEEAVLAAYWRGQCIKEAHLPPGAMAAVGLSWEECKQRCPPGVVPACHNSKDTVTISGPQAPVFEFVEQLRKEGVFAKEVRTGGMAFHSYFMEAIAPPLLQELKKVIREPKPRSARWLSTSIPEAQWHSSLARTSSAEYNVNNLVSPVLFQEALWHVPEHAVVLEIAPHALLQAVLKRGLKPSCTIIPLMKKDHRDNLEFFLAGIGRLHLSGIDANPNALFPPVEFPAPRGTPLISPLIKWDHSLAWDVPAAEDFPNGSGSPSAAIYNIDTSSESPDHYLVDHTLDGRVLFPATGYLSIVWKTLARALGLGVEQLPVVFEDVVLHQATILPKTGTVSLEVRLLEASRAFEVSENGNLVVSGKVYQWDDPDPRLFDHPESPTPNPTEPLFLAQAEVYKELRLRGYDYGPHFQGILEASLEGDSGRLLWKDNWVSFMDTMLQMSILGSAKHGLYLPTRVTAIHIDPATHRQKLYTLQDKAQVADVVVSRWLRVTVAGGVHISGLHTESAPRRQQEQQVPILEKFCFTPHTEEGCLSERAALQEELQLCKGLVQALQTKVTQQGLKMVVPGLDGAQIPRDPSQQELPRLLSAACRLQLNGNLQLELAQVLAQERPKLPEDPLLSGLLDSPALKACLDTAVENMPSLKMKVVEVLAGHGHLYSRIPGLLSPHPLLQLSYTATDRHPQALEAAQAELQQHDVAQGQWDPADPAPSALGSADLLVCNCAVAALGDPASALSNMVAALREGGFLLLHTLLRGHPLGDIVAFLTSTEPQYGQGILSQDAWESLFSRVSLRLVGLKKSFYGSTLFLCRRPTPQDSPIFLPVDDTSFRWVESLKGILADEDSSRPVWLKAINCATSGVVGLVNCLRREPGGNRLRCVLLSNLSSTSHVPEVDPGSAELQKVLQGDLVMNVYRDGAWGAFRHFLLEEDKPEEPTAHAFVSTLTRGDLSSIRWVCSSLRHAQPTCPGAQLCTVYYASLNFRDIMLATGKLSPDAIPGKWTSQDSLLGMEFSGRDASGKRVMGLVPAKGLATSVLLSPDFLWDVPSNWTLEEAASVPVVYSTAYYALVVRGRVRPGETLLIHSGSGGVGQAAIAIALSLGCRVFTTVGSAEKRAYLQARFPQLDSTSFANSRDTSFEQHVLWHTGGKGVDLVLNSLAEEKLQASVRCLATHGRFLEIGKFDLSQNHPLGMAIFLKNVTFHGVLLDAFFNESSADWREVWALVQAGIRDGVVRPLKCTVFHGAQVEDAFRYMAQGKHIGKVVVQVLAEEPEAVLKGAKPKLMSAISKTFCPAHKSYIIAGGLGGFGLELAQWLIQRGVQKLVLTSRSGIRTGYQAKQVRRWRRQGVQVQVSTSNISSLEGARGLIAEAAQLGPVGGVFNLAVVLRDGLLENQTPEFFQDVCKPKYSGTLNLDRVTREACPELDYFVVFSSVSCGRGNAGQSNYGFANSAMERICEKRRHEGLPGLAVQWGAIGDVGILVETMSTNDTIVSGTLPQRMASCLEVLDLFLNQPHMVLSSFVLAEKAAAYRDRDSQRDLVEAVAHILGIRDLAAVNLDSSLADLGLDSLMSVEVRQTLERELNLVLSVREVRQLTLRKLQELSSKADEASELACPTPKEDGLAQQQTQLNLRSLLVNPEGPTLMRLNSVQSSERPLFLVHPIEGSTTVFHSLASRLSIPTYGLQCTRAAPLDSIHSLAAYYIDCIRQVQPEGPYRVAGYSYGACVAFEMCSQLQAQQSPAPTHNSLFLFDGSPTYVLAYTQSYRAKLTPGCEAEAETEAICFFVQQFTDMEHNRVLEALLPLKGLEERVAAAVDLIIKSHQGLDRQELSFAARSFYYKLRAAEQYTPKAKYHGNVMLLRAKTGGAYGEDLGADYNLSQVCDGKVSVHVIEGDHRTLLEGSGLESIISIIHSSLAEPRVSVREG
Sequence of Nonstructural protein 1 (Q194T2 whole entry): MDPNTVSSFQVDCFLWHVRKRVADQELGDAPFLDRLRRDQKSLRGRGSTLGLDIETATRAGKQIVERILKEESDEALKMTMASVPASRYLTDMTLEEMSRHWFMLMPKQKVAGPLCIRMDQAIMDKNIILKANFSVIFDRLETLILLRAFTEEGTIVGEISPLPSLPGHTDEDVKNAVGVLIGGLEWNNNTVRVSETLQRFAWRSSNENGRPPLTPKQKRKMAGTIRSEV
Sequence of Induced myeloid leukemia cell differentiation protein Mcl-1 (Q07820 whole entry, the tested form may be a part): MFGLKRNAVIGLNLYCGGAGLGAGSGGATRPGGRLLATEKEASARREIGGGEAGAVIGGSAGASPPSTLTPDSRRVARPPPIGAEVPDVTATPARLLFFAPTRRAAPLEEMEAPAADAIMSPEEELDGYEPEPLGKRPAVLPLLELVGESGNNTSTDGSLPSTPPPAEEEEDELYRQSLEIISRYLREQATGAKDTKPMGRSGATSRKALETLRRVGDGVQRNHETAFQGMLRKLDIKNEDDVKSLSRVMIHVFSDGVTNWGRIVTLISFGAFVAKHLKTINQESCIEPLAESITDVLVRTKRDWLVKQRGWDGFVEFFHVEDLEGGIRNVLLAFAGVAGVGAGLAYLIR

Cc1ccc(S(=O)(=O)N2CCN(C(C)C(=O)Nc3ccccc3-c3ccccc3)CC2)cc1 (stereo not drawn)
IC50 [1]: > 64 µM (inactive)

COc1ccccc1NC(=O)Nc1nn(C)c2cccc(OC)c12
IC50 [2]: 41.2 µM (active)
CC50 [3]: 41.1 µM (active)

CCCOc1ccc(N2C(=O)CC(N(Cc3ccc(OC)cc3)C(S)=Nc3ccccc3)C2=O)cc1 (stereo not drawn)
IC50 [2]: 7.34 µM (active)
CC50 [3]: > 50 µM (active)

Cc1ccc(O)c(NC(=S)NC(=O)Cc2ccc(Cl)cc2)c1
IC50 [2]: 23.4 µM (active)
CC50 [3]: 29.4 µM (active)

COc1ccc(C(C)=O)cc1CSc1nc2cc(C(=O)O)ccc2c(=O)n1Cc1ccccc1
IC50 [4]: 83.5 µM (active)

C#CCCOC(=O)N1C2=NC(C(=O)OC)=C(C(=O)OC)[C@@H]3N(CC=C)c4ccccc4[C@]23C[C@H]1C(=O)OC
IC50 [4]: 58.5 µM (active)

Cc1ccc(S(=O)(=O)N(C)CCCC(=O)Nc2cc(C)ccc2C)cc1
IC50 [5]: 22.9 µM (active)

Cc1nn(-c2ccccc2)c2c1C(c1ccc([N+](=O)[O-])cc1)N1C(=N2)C(=O)Nc2ccccc21 (stereo not drawn)
IC50 [2]: 31.5 µM (active)
CC50 [3]: 34.8 µM (active)
CC50 [6]: 39.3 µM (active)

Oc1c(C(c2cccs2)N2CCN(c3ccccc3)CC2)ccc2cccnc12 (stereo not drawn)
IC50 [1]: > 64 µM (inactive)

COc1ccc(OCC(=O)N2CC3(C)CC2CC(C)(C)C3)cc1 (stereo not drawn)
IC50 [1]: > 64 µM (inactive)

CC(=O)C1=C(C)NC(SCc2ccc(C#N)cc2)=C(C#N)C1c1ccco1 (stereo not drawn)
IC50 [1]: > 64 µM (inactive)

CC1(C)Oc2ccc3ccc(=O)oc3c2C(/C=N/NC(N)=S)=C1O
EC50 [7]: 3.2 µM (active)
EC50 [8]: > 150 µM (not active)
EC50 [9]: 22.8 µM (active)
IC50 [5]: 26.6 µM (active)

COc1cc(/C=N/NC(=O)C(Cc2c[nH]c3ccccc23)NC(=O)OCc2ccccc2)cc([N+](=O)[O-])c1O (stereo not drawn)
IC50 [10]: 8.12 µM (active)
IC50 [4]: 4.75 µM (active)
IC50 [11]: 6.11 µM (active)
IC50 [12]: 5.95 µM (active)

Cc1ccc(-c2ccc(/C=N/NC3=NC(=O)C(CC(=O)O)S3)o2)c([N+](=O)[O-])c1 (stereo not drawn)
AC50 [13]: 26.5 µM (active)
IC50 [14]: 101 µM (active)
EC50 [15]: 10.5 µM (active)
IC50 [16]: 88.6 µM (active)
